pIC50: −log10 of the molar value. Where two headings read alike, the source gives them in different places.

For assay [1], the target named is Ba/F3-EGFR (L858R/T790M/C797S) (Homo sapiens, UniProt P00533, T790M/C797S/L858R, cells depend on it). The experiment in a line: Growth inhibition of cell line expressing EGFR (L858R/T790M/C797S). The class given is cell-based, mouse. The settings on record: read-out: BaF3_EGFR (L858R/T790M/C797S) IC50 value. An excerpt: (§1) Test for inhibitory activity against the growth of cell lines expressing wild-type and mutated EGFRs (in vitro)
Sequence of Ba/F3-EGFR (L858R/T790M/C797S) (P00533 whole entry T790M/C797S/L858R): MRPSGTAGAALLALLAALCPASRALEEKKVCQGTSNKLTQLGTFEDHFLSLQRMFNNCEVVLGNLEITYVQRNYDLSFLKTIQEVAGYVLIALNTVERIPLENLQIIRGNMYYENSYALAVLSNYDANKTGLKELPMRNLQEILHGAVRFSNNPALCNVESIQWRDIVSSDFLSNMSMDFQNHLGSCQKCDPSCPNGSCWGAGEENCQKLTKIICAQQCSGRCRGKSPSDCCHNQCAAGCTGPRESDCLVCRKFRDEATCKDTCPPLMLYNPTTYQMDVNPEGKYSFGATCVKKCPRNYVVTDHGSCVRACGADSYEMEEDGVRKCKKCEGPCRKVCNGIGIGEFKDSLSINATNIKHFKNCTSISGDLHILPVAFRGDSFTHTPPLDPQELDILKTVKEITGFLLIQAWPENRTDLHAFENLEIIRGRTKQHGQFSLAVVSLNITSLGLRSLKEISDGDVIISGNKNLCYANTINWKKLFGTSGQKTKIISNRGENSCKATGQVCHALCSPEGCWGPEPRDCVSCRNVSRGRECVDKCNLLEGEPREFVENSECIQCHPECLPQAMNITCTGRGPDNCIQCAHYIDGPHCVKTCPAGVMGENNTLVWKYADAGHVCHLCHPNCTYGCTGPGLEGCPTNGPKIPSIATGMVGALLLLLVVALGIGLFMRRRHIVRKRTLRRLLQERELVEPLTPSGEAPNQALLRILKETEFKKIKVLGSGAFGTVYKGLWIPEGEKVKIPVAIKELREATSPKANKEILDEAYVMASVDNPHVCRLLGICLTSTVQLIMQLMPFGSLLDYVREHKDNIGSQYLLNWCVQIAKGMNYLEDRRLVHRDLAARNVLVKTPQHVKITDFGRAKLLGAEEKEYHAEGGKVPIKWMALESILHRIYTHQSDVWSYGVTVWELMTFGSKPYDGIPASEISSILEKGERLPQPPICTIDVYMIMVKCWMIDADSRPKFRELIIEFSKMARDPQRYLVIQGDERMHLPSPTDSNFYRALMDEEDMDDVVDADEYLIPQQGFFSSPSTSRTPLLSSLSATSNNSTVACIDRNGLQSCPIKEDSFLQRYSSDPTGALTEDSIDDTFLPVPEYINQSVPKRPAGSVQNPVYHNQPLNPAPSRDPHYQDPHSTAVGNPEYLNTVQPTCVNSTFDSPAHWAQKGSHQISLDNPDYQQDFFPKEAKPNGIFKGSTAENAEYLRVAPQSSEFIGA
(§2) (1) Mouse cell line Ba/F3-EGFR (d746-750/T790M/C797S) transfected with and stably expressing EGFR (d746-750/T790M/C797S), mouse cell Ba/F3-EGFR (L858R/T790M/C797S) transfected with and stably expressing EGFR (L858R/T790M/C797S), and mouse cell line Ba/F3-EGFR (WT) transfected with and stably expressing wild-type EGFR were each suspended in RPMI-1640 cell culture medium (RPMI-1640, 10% FBS, 100 unit/ml penicillin, 0.1 mg/ml streptomycin). In the case of the mouse cell line Ba/F3-EGFR (WT), RPMI-1640 cell culture medium containing EGF at a final concentration of 50 ng/ml was used to suspend this cell line. It should be noted that the mouse cell line Ba/F3-EGFR (d746-750/T790M/C797S) transfected with and stably expressing EGFR (d746-750/T790M/C797S), the mouse cell line Ba/F3-EGFR (L858R/T790M/C797S) transfected with and stably expressing EGFR (L858R/T790M/C797S) and the mouse cell line Ba/F3-EGFR (WT) transfected with and stably expressing wild-type EGFR were prepared by using nucleotide sequences encoding the proteins of SEQ ID NOs: 1 and 2 in accordance with Test Example 1 in WO2018/079310, These cell suspensions were seeded in wells of 96-well flat -bottomed plates. The compounds of the present invention were dissolved in DMSO, and serial dilutions of these test compounds were prepared with DMSO (1000-fold of the final concentration). Each test compound solution in DMSO or DMSO alone was diluted with RPMI-1640 cell culture medium for each cell line, and this dilution was added to wells of the cell culture plate such that the final concentration of DMSO was 0.1%, followed by culture at 37° C. for 3 days in a 5% carbon dioxide gas-containing incubator. Before and after addition of each test compound solution in DMSO, the number of cells was counted using the CellTiter-Glo® system (Promega) on the basis of the protocol recommended by Promega.
(§3) In each cell line, the rate of cell growth inhibition was calculated according to the equation shown below in wells to which each test compound was added at different concentrations. Moreover, the inhibition rate at each concentration was plotted for each test compound, and the concentration of each test compound required to give 50% cell survival rate, i.e., IC50 (nM) was determined by curve fitting software XLfit (IDBS).
(§4) Cell survival rate (%)=T/C×100
(§5) T: emission intensity in a well cultured for 3 days after addition of a test compound solution
(§6) C: emission intensity in a well cultured for 3 days after addition of DMSO
(§7) In accordance with the same procedures as shown in Test Example 2, the compounds of the present invention were tested for their inhibitory activity against the growth of the cell hoes expressing wild-type and mutated EGFRs.

Assay [2] concerns the target T1, human EGFR (d746-750/T790M/C797S) (Homo sapiens, UniProt P00533, C797S/DEL746-750/T790M).
T1 construct: made in house; host or cells: Sf9 insect cells, baculovirus
The experiment in a line: Inhibitory activity against EGFR (d746-750/T790M/C797S) kinase. The class given is biochemical. The essentials:
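GST-fused cytoplasmic domain of human EGFR d746-750/T790M/C797S (Sf9-expressed) was incubated with 250 nM biotinylated peptide, 6 μM ATP, 10 mM MgCl2 and 10 mM MnCl2 (2.5% DMSO) for 120 min at 25 °C. After an EDTA stop, phosphotyrosine was detected by Eu-PT66/SureLight APC-SA TR-FRET (665/620 nm, excitation 337 nm). Background wells received EDTA before enzyme.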

The target in assay [3] is Ba/F3-EGFR (WT) (Homo sapiens, UniProt P00533). The experiment in a line: Growth inhibition of cell line expressing wild-type EGFR. The class given is cell-based, mouse. The note with it: read-out: BaF3_EGFR (WT) IC50 value.
Sequence of Ba/F3-EGFR (WT) (P00533 whole entry, change not shown): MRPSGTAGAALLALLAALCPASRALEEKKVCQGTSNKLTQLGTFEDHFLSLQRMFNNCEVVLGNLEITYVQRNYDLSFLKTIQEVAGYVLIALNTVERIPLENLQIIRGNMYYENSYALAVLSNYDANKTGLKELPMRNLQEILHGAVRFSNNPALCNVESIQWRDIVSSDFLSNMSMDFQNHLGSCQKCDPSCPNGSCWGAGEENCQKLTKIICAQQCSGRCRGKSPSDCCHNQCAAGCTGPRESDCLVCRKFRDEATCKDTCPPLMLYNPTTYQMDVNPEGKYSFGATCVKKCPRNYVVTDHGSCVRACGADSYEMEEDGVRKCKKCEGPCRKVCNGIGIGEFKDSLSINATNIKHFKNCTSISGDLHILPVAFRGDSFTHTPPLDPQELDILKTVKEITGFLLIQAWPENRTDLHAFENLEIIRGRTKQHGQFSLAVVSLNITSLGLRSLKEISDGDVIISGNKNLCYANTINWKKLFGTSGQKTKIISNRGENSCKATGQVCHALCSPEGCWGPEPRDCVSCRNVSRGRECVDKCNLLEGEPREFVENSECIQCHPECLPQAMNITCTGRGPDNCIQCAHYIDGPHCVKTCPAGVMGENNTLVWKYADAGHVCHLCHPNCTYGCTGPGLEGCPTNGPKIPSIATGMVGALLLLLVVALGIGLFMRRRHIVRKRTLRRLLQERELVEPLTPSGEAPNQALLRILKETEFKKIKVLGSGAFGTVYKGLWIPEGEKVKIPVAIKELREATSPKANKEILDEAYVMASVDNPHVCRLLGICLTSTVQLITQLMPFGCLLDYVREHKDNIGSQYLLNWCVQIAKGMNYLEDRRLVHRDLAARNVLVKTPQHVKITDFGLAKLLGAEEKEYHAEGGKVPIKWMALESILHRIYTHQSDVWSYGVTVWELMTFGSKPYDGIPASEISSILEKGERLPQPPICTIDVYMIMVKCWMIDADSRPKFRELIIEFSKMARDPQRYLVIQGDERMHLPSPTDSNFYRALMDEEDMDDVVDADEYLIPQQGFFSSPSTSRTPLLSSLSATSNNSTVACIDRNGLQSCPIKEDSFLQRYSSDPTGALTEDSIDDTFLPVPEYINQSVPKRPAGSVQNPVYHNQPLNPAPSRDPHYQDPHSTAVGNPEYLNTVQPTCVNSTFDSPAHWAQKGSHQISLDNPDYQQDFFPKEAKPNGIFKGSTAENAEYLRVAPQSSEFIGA
Description: as §1, §2, §3, §4, §5, §6, §7

Setting [4] is: Test Example 2, Table 7, culture 3 days, CellTiter-Glo.
[5] abbreviates: Test Example 1, Table 2, ATP 6 μM, 25° C., 120 minutes.
Where [6] appears, read: Test Example 2, Table 7, culture 3 days, EGF 50 ng/ml, CellTiter-Glo.
Where [7] appears, read: Test Example 4, Table 13, same procedures as Test Example 2.

T1 sequence (P00533 with tags, fused parts or gaps DEL746-750/T790M/C797S): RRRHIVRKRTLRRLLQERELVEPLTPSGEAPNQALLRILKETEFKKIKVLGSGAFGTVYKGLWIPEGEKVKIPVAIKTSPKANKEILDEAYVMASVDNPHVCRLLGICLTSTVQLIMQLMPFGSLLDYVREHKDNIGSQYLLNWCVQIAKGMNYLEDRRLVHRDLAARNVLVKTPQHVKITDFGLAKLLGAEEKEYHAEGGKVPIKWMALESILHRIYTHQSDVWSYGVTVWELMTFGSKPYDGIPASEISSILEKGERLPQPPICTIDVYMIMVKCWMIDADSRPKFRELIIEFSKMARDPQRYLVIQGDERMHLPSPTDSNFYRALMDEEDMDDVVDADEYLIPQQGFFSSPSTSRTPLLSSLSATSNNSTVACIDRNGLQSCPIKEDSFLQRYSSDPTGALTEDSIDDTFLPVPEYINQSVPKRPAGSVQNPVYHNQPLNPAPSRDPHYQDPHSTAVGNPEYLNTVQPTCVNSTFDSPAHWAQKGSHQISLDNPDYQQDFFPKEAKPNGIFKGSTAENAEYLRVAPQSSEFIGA

`C#Cc1c(-c2cnc3ccccc3c2)c2c(N)ncnc2n1C12CCC(NC(=O)c3cnc(C)cn3)(CC1)C2` [Example 37, N-(4-(4-Amino-6-ethynyl-5-(quinolin-3-yl)-7H-pyrrolo[2,3-d]pyrimidin-7-yl)-bicyclo-[2.2.1]heptan-1-yl)-5-methylpyrazine-2-carboxamide]: the values for the GI50 in assay [1] (setting [4]) and in assay [3] (setting [6]) were 270 nM and 2970 nM, respectively. This compound showed a pIC50 in assay [2] (setting [5]) of over 9.52.
For the compound `C#Cc1c(-c2cnc3ccccc3c2)c2c(N)ncnc2n1C12CCC(NC(C)=O)(CC1)C2` [Example 39, N-(4-(4-Amino-6-ethynyl-5-(quinolin-3-yl)-7H-pyrrolo[2,3-d]pyrimidin-7-yl)-bicyclo-[2.2.1]heptan-1-yl)acetamide], the GI50 was 658 nM in assay [1] (setting [7]) and 2360 nM in assay [3] (setting [7]). This compound also showed a pIC50 in assay [2] (setting [5]) of over 9.52.
`C#Cc1c(-c2cnc3ccccc3c2)c2c(N)ncnc2n1C12CCC(NC(=O)c3ccco3)(CC1)C2` [Example 41]: the GI50 is 843 nM in assay [1] (setting [7]) and 3240 nM in assay [3] (setting [7]). Moreover, the pIC50 in assay [2] (setting [5]) is over 9.52.
Regarding `C#Cc1c(-c2cnc3ccccc3c2)c2c(N)ncnc2n1C12CCC(NC(=O)c3ccncc3)(CC1)C2` [Example 43], the GI50 amounted to 417 nM in assay [1] (setting [4]) and 3290 nM in assay [3] (setting [6]). This compound had a pIC50 in assay [2] (setting [5]) of over 9.52.
Consider `C#Cc1c(-c2cnc3ccccc3c2)c2c(N)ncnc2n1C12CCC(NC(=O)c3ccno3)(CC1)C2` [Example 44], for which the GI50 in assay [1] (setting [7]) turned out to be 268 nM; in assay [3] (setting [7]) it was 2260 nM. In addition, the pIC50 in assay [2] (setting [5]) was over 9.52.
Take `C#Cc1c(-c2cnc3ccccc3c2)c2c(N)ncnc2n1C12CCC(NC(=O)c3cccnc3)(CC1)C2` [Example 45]: the GI50 in assay [1] (setting [4]) was found to be 305 nM; in assay [3] (setting [6]), 3400 nM. This compound showed a pIC50 in assay [2] (setting [5]) of over 9.52.
For `C#Cc1c(-c2cnc3ccccc3c2)c2c(N)ncnc2n1C12CCC(NC(=O)c3ncco3)(CC1)C2` [Example 46] the same measures were 204 nM, 2410 nM and over 9.52.
For `C#Cc1c(-c2cnc3ccccc3c2)c2c(N)ncnc2n1C12CCC(NC(=O)c3cnccn3)(CC1)C2` [Example 48], the GI50 stood at 223 nM in assay [1] (setting [4]) and 2490 nM in assay [3] (setting [6]). Besides, in assay [2] (setting [5]), the pIC50 was over 9.52.
Regarding `C#Cc1c(-c2cnc3ccccc3c2)c2c(N)ncnc2n1C12CCC(NC(=O)c3cccnn3)(CC1)C2` [Example 49], the GI50 is 290 nM in assay [1] (setting [4]) and 3070 nM in assay [3] (setting [6]). The same compound showed a pIC50 in assay [2] (setting [5]) of over 9.52.
For the compound `C#Cc1c(-c2cnc3ccccc3c2)c2c(N)ncnc2n1C12CCC(NC(=O)c3nccs3)(CC1)C2` [Example 53], the GI50 is 978 nM in assay [1] (setting [7]) and 3290 nM in assay [3] (setting [7]). In assay [2] (setting [5]), this compound showed a pIC50 of over 9.52.
For the compound `C#Cc1c(-c2cnc3ccccc3c2)c2c(N)ncnc2n1C12CCC(NC(=O)[C@@H]3CN(C)CCO3)(CC1)C2` [Example 63, (S)-N-(4-(4-Amino-6-ethynyl-5-(quinolin-3-yl)-7H-pyrrolo[2,3-d]pyrimidin-7-yl) -bicyclo[2.2.1]heptan-1-yl)-4-methylmorpholine-2-carboxamide], the values for the GI50 in assay [1] (setting [7]) and in assay [3] (setting [7]) were 672 nM and 2990 nM, respectively. In addition, the pIC50 in assay [2] (Test Example 3, Table 8; same procedures as 1) in Test Example 1) is over 9.52.

Values taken from patent US11786534B2 (TAIHO PHARMACEUTICAL CO., LTD., priority 2019, dated 2023).
